Columns and labels:
[1] = Pre-stability experiment of the crystal form (influencing factors and accelerated conditions, crystal form by XRPD); assay type: physicochemical
Protocol: X-Ray Powder Diffractometer (XRPD) Method in the Present Disclosure
Instrument model: Bruker D8 Advance X-ray diffractometer
Test method: About 10 mg of sample is used for XRPD test.
The detailed XRPD parameters are as follows:
The samples were fully exposed. Samples under the test condition of 40° C., 25° C./92.5% RH, light, light control were taken at 5 days and 10 days for analysis, and samples under the accelerated condition were taken at 1 month, 2 months and 3 months for analysis.

[2] = 25° C. competition experiment of water activity (suspension and beating, XRPD); assay type: physicochemical; conditions: competition of crystal form B and crystal form C
Protocol: If the solution was clear, the compound was continued to add until the solution was saturated. […] After addition of a magnetic stir bar, the above suspension sample was placed on a constant temperature mixer (25° C., 700 rpm) for shaking.
And the products obtained with water activity of 0.9 and 1.0 were characterized after drying, and the two were almost the same.

[3] = tested on: dry eye model of mice induced by scopolamine hydrobromide solution; experiment: Dry eye model of mice induced by subcutaneous scopolamine hydrobromide solution, eye drop administration; assay type: in vivo, C57BL/6 mice
Protocol: The grouping day was recorded as DO. After divided into groups, Animals in each group were subjected to modeling, eye drop administration, scoring of corneal fluorescent staining, tear secretion measurement, etc., according to the experimental settings.

[4] = tested on: dry eye model of rat induced by hypertonic sodium chloride solution; experiment: Hyperosmolar dry eye model of rats induced by hypertonic sodium chloride solution, eye drop administration; assay type: in vivo, SD rats
Protocol: 20 female SD rats qualified for the adaptability observation were subjected to the scoring of fluorescent staining of the cornea and measurement of tear secretion amount of both eyes for the animals, and animals with abnormalities of problematic fluorescent staining of the cornea and significant differences in tear secretion amount were excluded.
A pipette was used to draw 20 μL of sodium chloride solution (osmotic pressure of 500 mOsmol/L), which was dropped into the conjunctival sac of both eyes of the animal, 5 times/day, 20 μL/time, with an interval of about 2 hours between each time, for 28 consecutive days. After dropping the solution, the animal's eyelids were passively closed for about 90 s. On the 14th day of the modeling period, the animals were subjected to scoring of fluorescent staining of the cornea of both eyes and measurement of tear secretion amount, and the data were compared with the basic data, and the animals with significant differences in tear secretion amount of both eyes were selected for grouping.
, the tear secretion amount of both eyes was measured, and the scoring of fluorescent staining of the cornea […]

[5] = Tolerability of eye drops after administration in animals; assay type: in vivo; conditions: eye drops with the highest concentration
[6] = mice, 1 mg/mL eye drops (G3), D0 (grouping day)
[7] = mice, 1 mg/mL eye drops (G3), D7
[8] = mice, 1 mg/mL eye drops (G3), D12
[9] = mice, 2.5 mg/mL eye drops (G4), D0 (grouping day)
[10] = mice, 2.5 mg/mL eye drops (G4), D7
[11] = mice, 2.5 mg/mL eye drops (G4), D12
[12] = mice, 5 mg/mL eye drops (G5), D0 (grouping day)
[13] = mice, 5 mg/mL eye drops (G5), D7
[14] = mice, 5 mg/mL eye drops (G5), D12
[15] = rats, 1 mg/mL eye drops (G2), D0
[16] = rats, 1 mg/mL eye drops (G2), D14
[17] = rats, 1 mg/mL eye drops (G2), D21
[18] = rats, 5 mg/mL eye drops (G3), D0
[19] = rats, 5 mg/mL eye drops (G3), D14
[20] = rats, 5 mg/mL eye drops (G3), D21

With `CC(C)(O)c1ccc(-c2cnc(C(C)(C)O)c(N)c2)cc1N` the “Crystal Form” value ([1]; 25° C./92.5% RH (open), 5 days) was “Crystal Form B”, the “Crystal Form” value ([1]; 25° C./92.5% RH (open), 10 days) was “Crystal Form B” and the “Crystal Form” value ([1]; 40° C. (open), 1 month) was “Crystal Form B”. For the same molecule, the “Crystal Form” value ([1]; 40° C. (open), 10 days) was “Crystal Form B”, the “Crystal Form” value ([1]; 40° C./75% RH (open), 1 month) was “Crystal Form B” and the “Crystal Form” value ([1]; 40° C./75% RH (open), 2 month) was “Crystal Form B”. For the same molecule, the “Crystal Form” value ([1]; 40° C./75% RH (open), 3 month) was “Crystal Form B”, the “Crystal Form” value ([1]; 60° C./75% RH (open), 1 month) was “Crystal Form B” and the “Crystal Form” value ([1]; 60° C./75% RH (open), 2 month) was “Crystal Form B”. The “Crystal Form” value ([1]; 60° C./75% RH (open), 3 month) was “Crystal Form B”, the “Stability of the crystal form (conclusion)” value ([1]; influencing factors 10 days, 40° C. 1 month, 40° C./75% RH and 60° C./75% RH 3 months) was “stable” and the “Crystal Form” value ([1]; light (visible light intensity 5000 lux and ultraviolet intensity 90 W/cm^2, open), 10 days) was “Crystal Form B”. For the same molecule, the “Crystal Form” value ([1]; light control, 10 days) was “Crystal Form B”, the “Relative stability of crystal forms (conclusion)” value [2] was “more stable than the crystal form C of the compound of formula (I)” and the “Therapeutic effect on the dry eye model of mice (tear secretion amount and corneal damage)” value ([3]; eye drops 1 mg/mL, 2.5 mg/mL, 5 mg/mL) was “good therapeutic effect”. The “Scoring of fluorescent staining of the cornea” value (“Scoring” for short) [3, 6] was 0.50 ± 0.97, the “Tear secretion amount: wetted length of phenol red cotton thread” value (“Tear secretion amount: wetted length” below) [3, 6] was 4.54 ± 1.84 mm and the “Scoring” value [3, 7] was 2.56 ± 1.50##**&. For the same molecule, the “Tear secretion amount: wetted length” value [3, 7] was 2.13 ± 0.69##**& mm, the “Scoring” value [3, 8] was 2.31 ± 1.35##**& and the “Tear secretion amount: wetted length” value [3, 8] was 2.72 ± 0.91##**&& mm. The “Scoring” value [3, 9] was 0.31 ± 0.87, the “Tear secretion amount: wetted length” value [3, 9] was 4.30 ± 1.08 mm and the “Scoring” value [3, 10] was 2.88 ± 2.53. The “Tear secretion amount: wetted length” value [3, 10] was 2.14 ± 0.69##**& mm, the “Scoring” value [3, 11] was 2.56 ± 1.55 and the “Tear secretion amount: wetted length” value [3, 11] was 2.58 ± 0.82##**& mm. For the same molecule, the “Scoring” value [3, 12] was 0.25 ± 0.58, the “Tear secretion amount: wetted length” value [3, 12] was 4.28 ± 1.41 mm and the “Scoring” value [3, 13] was 2.38 ± 2.09##**&. For the same molecule, the “Tear secretion amount: wetted length” value [3, 13] was 2.73 ± 0.48##**&& mm, the “Scoring” value [3, 14] was 2.38 ± 1.20##**& and the “Tear secretion amount: wetted length” value [3, 14] was 2.85 ± 0.57##**&& mm. The “Concentration of eye drops with the best therapeutic effect” value ([3]; mice, combining tear secretion amount and corneal staining score) was 5 mg/mL, the “Therapeutic effect on the dry eye model of rat (tear secretion amount, corneal damage, tear film breakup time)” value ([4]; eye drops 1 mg/mL, 5 mg/mL) was “good therapeutic effect” and the “Scoring” value [4, 15] was 0.00 ± 0.00. The “Tear secretion amount: wetted length” value [4, 15] was 13.78 ± 5.25 mm, the “Scoring” value [4, 16] was 4.75 ± 3.73 and the “Tear secretion amount: wetted length” value [4, 16] was 8.12 ± 2.81 mm. The “Scoring” value [4, 17] was 3.00 ± 2.78, the “Tear secretion amount: wetted length” value [4, 17] was 9.24 ± 4.07 mm and the “Scoring” value [4, 18] was 0.13 ± 0.35. For the same molecule, the “Tear secretion amount: wetted length” value [4, 18] was 13.87 ± 4.45 mm, the “Scoring” value [4, 19] was 3.88 ± 2.36 and the “Tear secretion amount: wetted length” value [4, 19] was 7.16 ± 2.77 mm. For the same molecule, the “Scoring” value [4, 20] was 1.75 ± 1.49, the “Tear secretion amount: wetted length” value [4, 20] was 11.37 ± 3.26 mm and the “Tear film breakup time” value ([4]; rats, eye drops) was “improved”. The “Discomfort in animals after administration of the eye drops” value [5] was “do not cause any discomfort”.

— patent publication US12473258B2, “Crystal form of pyridinylphenyl compound and preparation method therefor” (ZHUHAI UNITED LABORATORIES CO., LTD., priority 2020, dated 2025)
